Columns and labels:
ICR mice = experiment: CNS function in mice (Irwin test); type: in vivo, mouse; settings: single oral doses up to 2000 mg/kg; 4 hrs
[1] = Plasma concentrations of EC-18 in non-irradiated and irradiated mice; type: in vivo; settings: male, Balb/c, mouse, po
Experimental: A day after 6.11 Gy gamma-radiation, both irradiated and non-irradiated male Balb/c mice (n=5) were orally administered daily with 50, 100, 250 or 500 mg/kg of EC-18 up to 14 days and analyzed for PK parameters on days 7 and 14 post-radiation (Table 21).

[2] = Repeated dose toxicity, SD rat; type: in vivo; settings: SD, rat, in vivo, Oral
Description: (§1) Various toxicology studies have been performed. All studies were GLP-compliant unless otherwise noted.

[3] = system: RIPK1/3-MLKL-mediated necroptosis pathway; experiment: Necroptosis signaling and DAMP release in HaCaT cells treated with CM or rhHMGB1; type: cell-based, human
Experimental: An additional experiment was tested for assessing whether EC-18 treatment leads to early termination of the RIPK1/3-MLKL-mediated downstream necroptosis pathway. This was performed by using DAMP-containing conditioned media (CM) harvested from HaCaT cells, irradiated for 48 hrs, and analyzed after 2 or 72 hrs of EC-18 treatment. […] To further confirm that DAMPs in CM contribute to the activation of a necroptosis signaling pathway in a paracrine manner, recombinant human HMGB1 (rhHMGB1) was treated directly to the normal HaCaT cells. The rhHMGB1 elevated the phosphorylation of RIPK1/3 and MLKL after 2 hrs and subsequently released HMGB1 and HSP90 (FIGS. 35C-35D). To evaluate whether EC-18 mitigates the activation of RIPK1/3 and MLKL, 10 or 100 μg/mL of EC-18 was treated before the addition of CM or rhHMGB1. As a result, EC-18 lowered the phosphorylation of RIPK/3 and MLKL in both CM- and rhHMGB1-treated cells after 2 hrs. Release of HMGB1 and Hsp90 was also subsided by EC-18 after 72 hrs of post addition of CM or rhHMGB1 to the cells (FIGS. 35A-35D). TLR4-induced necroptosis signaling pathway caused by DAMP release produces cytokines, such as CXCL8, a chemotactic cytokine for neutrophils. As CXCL8 increases upon tissue damage, it was measured in cells treated with CM or rhHMGB1 as a measure of inflammation. […]

[4] = system: Balb/c mice, 6.11 Gy gamma-radiation; experiment: Radiation-induced pneumonitis mouse model: lung damage; type: in vivo; settings: 50 or 250 mg/kg daily Day 0 to 3
Experimental: To examine the effect of EC-18 on the lung damage in pneumonitis, female Balb/c mice (n=3/group) were exposed to 6.11 Gy of gamma-radiation at Day 0. EC-18 at 50 or 250 mg/kg was administered daily from Day 0 to 3. To verify the vascular leakage of the lung due to radiation exposure, Evans blue staining was diluted with PBS and injected i.v. into mice 30 mins before sacrificing them on Day 3 (FIG. 56).
The further microscopical analysis was conducted by extracting the lung after sacrificing the mice. The perfused lung tissues were fixed in 10% buffered formalin for 24 hrs, embedded in paraffin, sectioned at 4 μm, and stained with hematoxylin and eosin (H&E) staining. […] In contrast, the infiltration of the RBCs into the lung tissues was not observed in both the EC-18-treated group.

Balb/c mice, 6.11 Gy TBI = experiment: Structural analog / calorie effect study: EC-18, PLH, olive oil in 6.11 Gy ARS model; type: in vivo, mouse; settings: 250 mg/kg daily
Experimental: Similarly, a structural analog efficacy study was conducted to identify the optimally functional molecule in the ARS murine model. The study was performed with the structural analog in which the acetyl group in EC-18 is replaced with a hydroxyl group (yielding palmitic linoleic hydroxyl glycerol, PLH) in 20 Balb/c mice (10 female and 10 male) per group. Mice were irradiated with TBI of 6.11Gy at day 0 and 250 mg/kg of EC-18 or PLH were given daily in-life.
The purpose of this study was to assess whether extra calories of EC-18 contribute to the enhanced survival in mice after exposure to a whole-body sublethal dose of γ-radiation. The study was performed with the structural analog in which the acetyl group in EC-18 is replaced with a hydroxyl group (yielding PLH) in a total of 100 BALB/c mice ([…]; 20 animals per study group) aged at 11 weeks. Mice were irradiated with TBI of 6.11Gy at day 0 and the same dosage (250 mg/kg) of EC-18, PLH, or olive oil (vehicle control) were given daily in-life.

Guinea pig = experiment: Antigenicity test; type: in vivo; settings: Oral; 2 weeks; 500, 2000 mg/kg; 2000 mg/kg + FCA
Description: as §1

[5] = 50 mg/kg, day 7, 50 mg/kg oral daily, Irradiated 6.11 Gy
[6] = 50 mg/kg, day 7, 50 mg/kg oral daily, Non-irradiated
[7] = 50 mg/kg, day 14, 50 mg/kg oral daily, Irradiated 6.11 Gy
[8] = 50 mg/kg, day 14, 50 mg/kg oral daily, Non-irradiated
[9] = 100 mg/kg, day 7, 100 mg/kg oral daily, Irradiated 6.11 Gy
[10] = 100 mg/kg, day 7, 100 mg/kg oral daily, Non-irradiated
[11] = 100 mg/kg, day 14, 100 mg/kg oral daily, Irradiated 6.11 Gy
[12] = 100 mg/kg, day 14, 100 mg/kg oral daily, Non-irradiated
[13] = 250 mg/kg, day 7, 250 mg/kg oral daily, Irradiated 6.11 Gy
[14] = 250 mg/kg, day 7, 250 mg/kg oral daily, Non-irradiated
[15] = 250 mg/kg, day 14, 250 mg/kg oral daily, Irradiated 6.11 Gy
[16] = 250 mg/kg, day 14, 250 mg/kg oral daily, Non-irradiated
[17] = 500 mg/kg, day 7, 500 mg/kg oral daily, Irradiated 6.11 Gy
[18] = 500 mg/kg, day 7, 500 mg/kg oral daily, Non-irradiated
[19] = 500 mg/kg, day 14, 500 mg/kg oral daily, Irradiated 6.11 Gy
[20] = 500 mg/kg, day 14, 500 mg/kg oral daily, Non-irradiated

SMILES: CCCCC/C=C\C/C=C\CCCCCCCC(=O)OC(COC(C)=O)COC(=O)CCCCCCCCCCCCCCC (stereo not shown) [EC-18, 1-palmitoyl-2-linoleoyl-3-acetylglycerol]
- CNS function (Irwin test) (ICR mice): did not affect the CNS function
- AUC(0-t) [1, 5]: 39.5 ± 14.8 ng·h/mL
- Cmax [1, 5]: 7.8 ± 3.4 ng/mL
- Tmax [1, 5]: 0.4 ± 0.3 h
- AUC(0-t) [1, 6]: 21.6 ± 11.7 ng·h/mL
- Cmax [1, 6]: 2.7 ± 1.4 ng/mL
- Tmax [1, 6]: 2.8 ± 2.4 h
- AUC(0-t) [1, 7]: 8.6 ± 3.7 ng·h/mL
- Cmax [1, 7]: 1.9 ± 0.6 ng/mL
- Tmax [1, 7]: 3.1 ± 4.5 h
- AUC(0-t) [1, 8]: 38.5 ± 10.3 ng·h/mL
- Cmax [1, 8]: 4.1 ± 1.4 ng/mL
- Tmax [1, 8]: 7.8 ± 8.4 h
- AUC(0-t) [1, 9]: 41.3 ± 12.1 ng·h/mL
- Cmax [1, 9]: 9.8 ± 2.9 ng/mL
- Tmax [1, 9]: 0.7 ± 0.2 h
- AUC(0-t) [1, 10]: 25.3 ± 7.1 ng·h/mL
- Cmax [1, 10]: 9.7 ± 4.7 ng/mL
- Tmax [1, 10]: 5.2 ± 8.6 h
- AUC(0-t) [1, 11]: 80.8 ± 124 ng·h/mL
- Cmax [1, 11]: 17.2 ± 23.3 ng/mL
- Tmax [1, 11]: 1.8 ± 2.1 h
- AUC(0-t) [1, 12]: 51.3 ± 22.6 ng·h/mL
- Cmax [1, 12]: 12.8 ± 9.9 ng/mL
- Tmax [1, 12]: 7.6 ± 8.5 h
- AUC(0-t) [1, 13]: 73.9 ± 27.1 ng·h/mL
- Cmax [1, 13]: 31.4 ± 14.9 ng/mL
- Tmax [1, 13]: 0.6 ± 0.2 h
- AUC(0-t) [1, 14]: 40.7 ± 23.4 ng·h/mL
- Cmax [1, 14]: 16.4 ± 11.2 ng/mL
- Tmax [1, 14]: 0.6 ± 0.2 h
- AUC(0-t) [1, 15]: 16.2 ± 7.8 ng·h/mL
- Cmax [1, 15]: 17.9 ± 17.5 ng/mL
- Tmax [1, 15]: 0.6 ± 0.2 h
- AUC(0-t) [1, 16]: 76.6 ± 9.8 ng·h/mL
- Cmax [1, 16]: 19.4 ± 12.3 ng/mL
- Tmax [1, 16]: 2.8 ± 4.2 h
- AUC(0-t) [1, 17]: 123 ± 17.8 ng·h/mL
- Cmax [1, 17]: 60.7 ± 14.6 ng/mL
- Tmax [1, 17]: 0.7 ± 0.2 h
- AUC(0-t) [1, 18]: 57.1 ± 39.7 ng·h/mL
- Cmax [1, 18]: 14.2 ± 3 ng/mL
- Tmax [1, 18]: 5.2 ± 8.6 h
- AUC(0-t) [1, 19]: 67.3 ± 34.1 ng·h/mL
- Cmax [1, 19]: 61 ± 42.1 ng/mL
- Tmax [1, 19]: 0.6 ± 0.2 h
- AUC(0-t) [1, 20]: 75.9 ± 16 ng·h/mL
- Cmax [1, 20]: 32.1 ± 8 ng/mL
- Tmax [1, 20]: 0.5 h
- NOAEL at 4 weeks ([2]; 4 weeks (DRF)): > 2000 mg/kg/day
- NOAEL at 13 weeks ([2]; 13 weeks): > 2000 mg/kg/day
- NOAEL at 26 weeks ([2]; 26 weeks (4-week recovery)): > 2000 mg/kg/day
- phosphorylation of RIPK1/3 and MLKL ([3]; 10 or 100 μg/mL before CM or rhHMGB1, after 2 hrs): lowered
- release of HMGB1 and Hsp90 ([3]; 10 or 100 μg/mL, 72 hrs after CM or rhHMGB1): subsided
- infiltration of RBCs into the lung tissues (H&E) [4]: not observed
- vascular leakage of the lung (Evans blue) [4]: mitigated the vascular leakage
- No. of mice that survived/total (Balb/c mice, 6.11 Gy TBI): 14/20
- Survival (Balb/c mice, 6.11 Gy TBI): 70%
- Survival time of decedents, Mean ± SEM (Balb/c mice, 6.11 Gy TBI): 23.7 ± 1.4 days
- Survival time of decedents, Median (Balb/c mice, 6.11 Gy TBI): 23.5 days
- body weight loss induced by irradiation (Balb/c mice, 6.11 Gy TBI): effectively prevented and rapidly recovered weight loss
- increase in survival vs control and PLH-treated group (Balb/c mice, 6.11 Gy TBI): 2 fold
- survival compared to control group (Balb/c mice, 6.11 Gy TBI): significant increase
- anaphylaxis reaction / antigenicity (Guinea pig): No anaphylaxis reaction
